Reference: patent publication US9593108B2, “Compounds and methods for antiviral treatment” (PTC Therapeutics, Inc., priority 2009, dated 2017)

Assays:
[1] = test system: HCV replicon RNA (GenBank Accession No. AJ242654); test: HCV Replicon Assay (replicon RNA reduction and/or Fluc reporter signal); format: cell-based, Hepatitis C virus; conditions: Hepatitis C virus, 72 h, replicon-containing cells cultured with test compound for up to 3 days
Procedure, shortened: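 Bicistronic replicon-containing cells cultured with compound for up to 3 days, with interferon as positive control. Inhibition quantified by replicon RNA reduction and/or Fluc reporter signal; IC50 values generally derived from replicon RNA reduction.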

Row | SMILES | IC50 [1] | melting point
1 | Cc1cnc2c(c1)c(C#N)c(-c1ncc(S(=O)(=O)N[C@@H](C)C(F)(F)F)cn1)n2C1CCC1 [Cpd 71, 2-(3-cyano-1-cyclobutyl-5-methyl-1H-pyrrolo[2,3-b]pyridin-2-yl)-N-[(2S)-1,1,1-trifluoropropan-2-yl]pyrimidine-5-sulfonamide] | < 500 nM | 186 to 188 °C
2 | Cc1cnc2c(c1)c(C#N)c(-c1ccc(S(=O)(=O)N[C@H](C)C(F)(F)F)cc1)n2C1CCC1 [Cpd 72, 4-(3-cyano-1-cyclobutyl-5-methyl-1H-pyrrolo[2,3-b]pyridin-2-yl)-N-[(2R)-1,1,1-trifluoropropan-2-yl]benzenesulfonamide] | < 500 nM | 197 to 198 °C
3 | Cc1cnc2c(c1)c(C#N)c(-c1ccc(S(=O)(=O)N[C@@H](C)C(F)(F)F)cc1)n2C1CCC1 [Cpd 73, 4-(3-cyano-1-cyclobutyl-5-methyl-1H-pyrrolo[2,3-b]pyridin-2-yl)-N-[(2S)-1,1,1-trifluoropropan-2-yl]benzenesulfonamide] | < 500 nM | 197 to 198 °C
4 | Cc1cnc2c(c1)c(C#N)c(-c1ccc(S(=O)(=O)NC3(C(F)(F)F)CC3)cn1)n2C1CCC1 [Cpd 74, 6-(3-cyano-1-cyclobutyl-5-methyl-1H-pyrrolo[2,3-b]pyridin-2-yl)-N-[1-(trifluoromethyl)cyclopropyl]pyridine-3-sulfonamide] | < 500 nM | 245 to 247 °C
5 | Cc1cnc2c(c1)c(C#N)c(-c1ccc(S(=O)(=O)NC3(C(F)(F)F)CC3)cc1)n2C1CCC1 [Cpd 75, 4-(3-cyano-1-cyclobutyl-5-methyl-1H-pyrrolo[2,3-b]pyridin-2-yl)-N-[1-(trifluoromethyl)cyclopropyl]benzenesulfonamide] | < 500 nM | 187 to 188 °C
6 | Cc1cnc2c(c1)c(C#N)c(-c1ccc(S(=O)(=O)NC3(C)CC3)cn1)n2C1CCC1 [Cpd 76, 6-(3-cyano-1-cyclobutyl-5-methyl-1H-pyrrolo[2,3-b]pyridin-2-yl)-N-(1-methylcyclopropyl)pyridine-3-sulfonamide] | 500 to 2000 nM | 188 to 189 °C
7 | Cc1cnc2c(c1)c(C#N)c(-c1ccc(S(=O)(=O)NC3(C)CC3)cc1)n2C1CCC1 [Cpd 77, 4-(3-cyano-1-cyclobutyl-5-methyl-1H-pyrrolo[2,3-b]pyridin-2-yl)-N-(1-methylcyclopropyl)benzenesulfonamide] | < 500 nM | 188 to 190 °C
8 | Cc1cnc2c(c1)c(C#N)c(-c1ncc(S(=O)(=O)NC(C)C)cn1)n2C1CCC1 [Cpd 78, 2-(3-cyano-1-cyclobutyl-5-methyl-1H-pyrrolo[2,3-b]pyridin-2-yl)-N-(propan-2-yl)pyrimidine-5-sulfonamide] | < 500 nM | 187 to 190 °C
9 | Cc1cnc2c(c1)c(C#N)c(-c1ccc(S(=O)(=O)NC(C)(C)C(F)(F)F)cc1)n2C1CCC1 [Cpd 79, 4-(3-cyano-1-cyclobutyl-5-methyl-1H-pyrrolo[2,3-b]pyridin-2-yl)-N-(1,1,1-trifluoro-2-methylpropan-2-yl)benzenesulfonamide] | < 500 nM | 180 to 181 °C
10 | C[C@H](NS(=O)(=O)c1ccc(-c2c(C#N)c3cnc(Cl)cc3n2C2CCCC2)nc1)C(F)(F)F [Cpd 80, 6-(6-chloro-3-cyano-1-cyclopentyl-1H-pyrrolo[3,2-c]pyridin-2-yl)-N-[(2S)-1,1,1-trifluoropropan-2-yl]pyridine-3-sulfonamide] | < 500 nM | 235 to 237 °C
11 | C[C@@H](NS(=O)(=O)c1ccc(-c2c(C#N)c3cnc(Cl)cc3n2C2CCCC2)nc1)C(F)(F)F [Cpd 81, 6-(6-chloro-3-cyano-1-cyclopentyl-1H-pyrrolo[3,2-c]pyridin-2-yl)-N-[(2R)-1,1,1-trifluoropropan-2-yl]pyridine-3-sulfonamide] | < 500 nM | 239 to 240 °C
12 | N#Cc1c(-c2ccc(S(=O)(=O)NC(CF)CF)cn2)n(C2CCCC2)c2cc(Cl)ncc12 [Cpd 82, 6-(6-chloro-3-cyano-1-cyclopentyl-1H-pyrrolo[3,2-c]pyridin-2-yl)-N-(1,3-difluoropropan-2-yl)pyridine-3-sulfonamide] | < 500 nM | 231 to 233 °C
13 | N#Cc1c(-c2ccc(S(=O)(=O)NC3(C(F)(F)F)CC3)cn2)n(C2CCCC2)c2cc(Cl)ncc12 [Cpd 83, 6-(6-chloro-3-cyano-1-cyclopentyl-1H-pyrrolo[3,2-c]pyridin-2-yl)-N-[1-(trifluoromethyl)cyclopropyl]pyridine-3-sulfonamide] | < 500 nM | 225 to 227 °C
14 | CC1(NS(=O)(=O)c2ccc(-c3c(C#N)c4cnc(Cl)cc4n3C3CCCC3)nc2)CC1 [Cpd 84, 6-(6-chloro-3-cyano-1-cyclopentyl-1H-pyrrolo[3,2-c]pyridin-2-yl)-N-(1-methylcyclopropyl)pyridine-3-sulfonamide] | < 500 nM | 209 to 211 °C
15 | CC(C)NS(=O)(=O)c1cnc(-c2c(C#N)c3cnc(Cl)cc3n2C2CCCC2)nc1 [Cpd 85, 2-(6-chloro-3-cyano-1-cyclopentyl-1H-pyrrolo[3,2-c]pyridin-2-yl)-N-(propan-2-yl)pyrimidine-5-sulfonamide] | < 500 nM | 249 to 250 °C
16 | N#Cc1c(-c2ncc(S(=O)(=O)NC(CF)CF)cn2)n(C2CCCC2)c2cc(Cl)ncc12 [Cpd 86, 2-(6-chloro-3-cyano-1-cyclopentyl-1H-pyrrolo[3,2-c]pyridin-2-yl)-N-(1,3-difluoropropan-2-yl)pyrimidine-5-sulfonamide] | < 500 nM | 224 to 226 °C
17 | C[C@H](NS(=O)(=O)c1ccc(-c2c(C#N)c3cnc(Cl)cc3n2C2CCCC2)cc1)C(F)(F)F [Cpd 87, 4-(6-chloro-3-cyano-1-cyclopentyl-1H-pyrrolo[3,2-c]pyridin-2-yl)-N-[(2S)-1,1,1-trifluoropropan-2-yl]benzenesulfonamide] | < 500 nM | 238 to 240 °C
18 | C[C@@H](NS(=O)(=O)c1ccc(-c2c(C#N)c3cnc(Cl)cc3n2C2CCCC2)cc1)C(F)(F)F [Cpd 88, 4-(6-chloro-3-cyano-1-cyclopentyl-1H-pyrrolo[3,2-c]pyridin-2-yl)-N-[(2R)-1,1,1-trifluoropropan-2-yl]benzenesulfonamide] | < 500 nM | 239 to 241 °C
19 | N#Cc1c(-c2ccc(S(=O)(=O)NC3(C(F)(F)F)CC3)cc2)n(C2CCCC2)c2cc(Cl)ncc12 [Cpd 89, 4-(6-chloro-3-cyano-1-cyclopentyl-1H-pyrrolo[3,2-c]pyridin-2-yl)-N-[1-(trifluoromethyl)cyclopropyl]benzenesulfonamide] | 2000 to 5000 nM | 288 to 289 °C
20 | Cc1ccc2c(C#N)c(-c3ccc(S(=O)(=O)N[C@@H](C)C(F)(F)F)cc3)n(C3CCC3)c2n1 [Cpd 90, 4-(3-cyano-1-cyclobutyl-6-methyl-1H-pyrrolo[2,3-b]pyridin-2-yl)-N-[(2S)-1,1,1-trifluoropropan-2-yl]benzenesulfonamide] | < 500 nM | 169 to 177 °C
21 | Cc1ccc2c(C#N)c(-c3ccc(S(=O)(=O)NC4(C(F)(F)F)CC4)cn3)n(C3CCC3)c2n1 [Cpd 94, 6-(3-cyano-1-cyclobutyl-6-methyl-1H-pyrrolo[2,3-b]pyridin-2-yl)-N-[1-(trifluoromethyl)cyclopropyl]pyridine-3-sulfonamide] | < 500 nM | 230 to 236 °C
